Data: US4180506A, “6β-Bromo penicillanic acid” (priority 1978, dated 1979)
Read-outs that look alike come from different tables or passages of the source.

Experiments:
S. aureus MB-3648 = test: Disc agar diffusion test, potentiation of Pen G and ampicillin; format: cell-based, Staphylococcus aureus MB-3648
S. aureus MB-3649 = test: as above; format: cell-based, Staphylococcus aureus MB-3649
Vibrio percolans MB-1272 = test: Bilayer agar diffusion test, potentiation of Pen G in the presence of penicillinase; format: cell-based
[1] = test system: two penicillinase-producing animal-pathogenic strains of Staphylococcus aureus; format: cell-based, Staphylococcus aureus MB-3648 and MB-3649
[2] = Ampicillin 15.7 μg/ml plus 4 μg/ml clavulanic acid
[3] = Ampicillin 15.7 μg/ml plus 32 μg/ml 6 BPA
[4] = Ampicillin 31.3 μg/ml plus 4 μg/ml clavulanic acid
[5] = Ampicillin 31.3 μg/ml plus 32 μg/ml 6 BPA
[6] = Ampicillin 62.5 μg/ml plus 4 μg/ml clavulanic acid
[7] = Ampicillin 62.5 μg/ml plus 32 μg/ml 6 BPA
[8] = Ampicillin 125 μg/ml plus 4 μg/ml clavulanic acid
[9] = Ampicillin 125 μg/ml plus 32 μg/ml 6 BPA
[10] = Ampicillin 250 μg/ml plus 4 μg/ml clavulanic acid
[11] = Ampicillin 250 μg/ml plus 32 μg/ml 6 BPA
[12] = subinhibitory concentration (1/4 MZC), extrapolated on standard/regression curve

CC1(C)S[C@@H]2[C@H](NC(=O)[C@H](N)c3ccccc3)C(=O)N2[C@H]1C(=O)O [Ampicillin]
Inhibition Zone Diameter, plus Clavulanic Ac (S. aureus MB-3648; [2]): 22 mm
Inhibition Zone Diameter, plus 6 BPA (S. aureus MB-3648; [3]): 23 mm
Inhibition Zone Diameter, plus Clavulanic Ac (S. aureus MB-3648; [4]): 23 mm
Inhibition Zone Diameter, plus 6 BPA (S. aureus MB-3648; [5]): 23 mm
Inhibition Zone Diameter, plus Clavulanic Ac (S. aureus MB-3648; [6]): 26 mm
Inhibition Zone Diameter, plus 6 BPA (S. aureus MB-3648; [7]): 24 mm
Inhibition Zone Diameter, plus Clavulanic Ac (S. aureus MB-3648; [8]): 27 mm
Inhibition Zone Diameter, plus 6 BPA (S. aureus MB-3648; [9]): 25 mm
Inhibition Zone Diameter, plus Clavulanic Ac (S. aureus MB-3648; [10]): 27 mm
Inhibition Zone Diameter, plus 6 BPA (S. aureus MB-3648; [11]): 26 mm
zone of inhibition at 15.7 µg/mL (S. aureus MB-3648; Staphylococcus aureus, MB3648, Ampicillin 15.7 μg/ml, read-out: Inhibition Zone Diameter, alone): 0 mm
zone of inhibition at 31.3 µg/mL (S. aureus MB-3648; Staphylococcus aureus, MB3648, Ampicillin 31.3 μg/ml, read-out: Inhibition Zone Diameter, alone): 0 mm
zone of inhibition at 62.5 µg/mL (S. aureus MB-3648; Staphylococcus aureus, MB3648, Ampicillin 62.5 μg/ml, read-out: Inhibition Zone Diameter, alone): 0 mm
zone of inhibition at 125 µg/mL (S. aureus MB-3648; Staphylococcus aureus, MB3648, Ampicillin 125 μg/ml, read-out: Inhibition Zone Diameter, alone): 18 mm
zone of inhibition at 250 µg/mL (S. aureus MB-3648; Staphylococcus aureus, MB3648, Ampicillin 250 μg/ml, read-out: Inhibition Zone Diameter, alone): 20 mm
zone of inhibition at 500 µg/mL (S. aureus MB-3648; Staphylococcus aureus, MB3648, Ampicillin 500 μg/ml, read-out: Inhibition Zone Diameter, alone): 23 mm
zone of inhibition at 1000 µg/mL (S. aureus MB-3648; Staphylococcus aureus, MB3648, Ampicillin 1000 μg/ml, read-out: Inhibition Zone Diameter, alone): 26 mm
Inhibition Zone Diameter, plus Clavulanic Ac (S. aureus MB-3649; [2]): 20 mm
Inhibition Zone Diameter, plus 6 BPA (S. aureus MB-3649; [3]): 19 mm
Inhibition Zone Diameter, plus Clavulanic Ac (S. aureus MB-3649; [4]): 23 mm
Inhibition Zone Diameter, plus 6 BPA (S. aureus MB-3649; [5]): 21 mm
Inhibition Zone Diameter, plus Clavulanic Ac (S. aureus MB-3649; [6]): 24 mm
Inhibition Zone Diameter, plus 6 BPA (S. aureus MB-3649; [7]): 23 mm
Inhibition Zone Diameter, plus Clavulanic Ac (S. aureus MB-3649; [8]): 25 mm
Inhibition Zone Diameter, plus 6 BPA (S. aureus MB-3649; [9]): 24 mm
Inhibition Zone Diameter, plus Clavulanic Ac (S. aureus MB-3649; [10]): 24 mm
Inhibition Zone Diameter, plus 6 BPA (S. aureus MB-3649; [11]): 29 mm
zone of inhibition at 15.7 µg/mL (S. aureus MB-3649; Staphylococcus aureus, MB3649, Ampicillin 15.7 μg/ml, read-out: Inhibition Zone Diameter, alone): 0 mm
zone of inhibition at 31.3 µg/mL (S. aureus MB-3649; Staphylococcus aureus, MB3649, Ampicillin 31.3 μg/ml, read-out: Inhibition Zone Diameter, alone): 0 mm
zone of inhibition at 62.5 µg/mL (S. aureus MB-3649; Staphylococcus aureus, MB3649, Ampicillin 62.5 μg/ml, read-out: Inhibition Zone Diameter, alone): 0 mm
zone of inhibition at 125 µg/mL (S. aureus MB-3649; Staphylococcus aureus, MB3649, Ampicillin 125 μg/ml, read-out: Inhibition Zone Diameter, alone): 17 mm
zone of inhibition at 250 µg/mL (S. aureus MB-3649; Staphylococcus aureus, MB3649, Ampicillin 250 μg/ml, read-out: Inhibition Zone Diameter, alone): 18 mm
zone of inhibition at 500 µg/mL (S. aureus MB-3649; Staphylococcus aureus, MB3649, Ampicillin 500 μg/ml, read-out: Inhibition Zone Diameter, alone): 20 mm
zone of inhibition at 1000 µg/mL (S. aureus MB-3649; Staphylococcus aureus, MB3649, Ampicillin 1000 μg/ml, read-out: Inhibition Zone Diameter, alone): 25 mm

O=C(O)[C@H]1/C(=C/CO)O[C@@H]2CC(=O)N21 [Clavulanic Acid]
Zone of inhibition, Antibiotic + Penase + Pen G (Vibrio percolans MB-1272; 1 μg/ml, Penase 10^4 units/ml, Pen G 5 μg/ml): 0 mm
Zone of inhibition, Antibiotic + Penase + Pen G (Vibrio percolans MB-1272; 2 μg/ml, Penase 10^4 units/ml, Pen G 5 μg/ml): 0 mm
Zone of inhibition, Antibiotic + Penase + Pen G (Vibrio percolans MB-1272; 4 μg/ml, Penase 10^4 units/ml, Pen G 5 μg/ml): 0 mm
Zone of inhibition, Antibiotic + Penase + Pen G (Vibrio percolans MB-1272; 8 μg/ml, Penase 10^4 units/ml, Pen G 5 μg/ml): 0 mm
Zone of inhibition, Antibiotic + Penase + Pen G (Vibrio percolans MB-1272; 16 μg/ml, Penase 10^4 units/ml, Pen G 5 μg/ml): 10 mm
Zone of inhibition, Antibiotic + Penase + Pen G (Vibrio percolans MB-1272; 31 μg/ml, Penase 10^4 units/ml, Pen G 5 μg/ml): 21 mm
zone of inhibition at 1 µg/mL (Vibrio percolans MB-1272; Comamonas terrigena, MB1272, 1 μg/ml, Penase 10^4 units/ml, read-out: Zone of inhibition, Antibiotic + Penase): 0 mm
zone of inhibition at 1 µg/mL (Vibrio percolans MB-1272; Comamonas terrigena, MB1272, 1 μg/ml, read-out: Zone of inhibition, Antibiotic Alone): 0 mm
zone of inhibition at 2 µg/mL (Vibrio percolans MB-1272; Comamonas terrigena, MB1272, 2 μg/ml, Penase 10^4 units/ml, read-out: Zone of inhibition, Antibiotic + Penase): 0 mm
zone of inhibition at 2 µg/mL (Vibrio percolans MB-1272; Comamonas terrigena, MB1272, 2 μg/ml, read-out: Zone of inhibition, Antibiotic Alone): 0 mm
zone of inhibition at 4 µg/mL (Vibrio percolans MB-1272; Comamonas terrigena, MB1272, 4 μg/ml, Penase 10^4 units/ml, read-out: Zone of inhibition, Antibiotic + Penase): 0 mm
zone of inhibition at 4 µg/mL (Vibrio percolans MB-1272; Comamonas terrigena, MB1272, 4 μg/ml, read-out: Zone of inhibition, Antibiotic Alone): 0 mm
zone of inhibition at 8 µg/mL (Vibrio percolans MB-1272; Comamonas terrigena, MB1272, 8 μg/ml, read-out: Zone of inhibition, Antibiotic Alone): 0 mm
zone of inhibition at 16 µg/mL (Vibrio percolans MB-1272; Comamonas terrigena, MB1272, 16 μg/ml, Penase 10^4 units/ml, read-out: Zone of inhibition, Antibiotic + Penase): 10 mm
zone of inhibition at 16 µg/mL (Vibrio percolans MB-1272; Comamonas terrigena, MB1272, 16 μg/ml, read-out: Zone of inhibition, Antibiotic Alone): 8 mm
zone of inhibition at 31 µg/mL (Vibrio percolans MB-1272; Comamonas terrigena, MB1272, 31 μg/ml, Penase 10^4 units/ml, read-out: Zone of inhibition, Antibiotic + Penase): 21 mm
zone of inhibition at 31 µg/mL (Vibrio percolans MB-1272; Comamonas terrigena, MB1272, 31 μg/ml, read-out: Zone of inhibition, Antibiotic Alone): 20 mm
Concentration required to produce a zone of inhibition in the presence of Pen G and Penase (Vibrio percolans MB-1272; Pen G 5 μg/ml, Penase 10^4 units/ml): 16 µg/mL
Amount of clavulanic acid required relative to 6 BPA to produce a zone of inhibition (Vibrio percolans MB-1272; in the presence of Pen G and Penase): 64 times
Potentiation of Pen G [1, 12]: 64 fold
Potentiation of ampicillin [1, 12]: 32 fold
1/4 of minimum zone-inducing concentration (1/4MZC) ([1]; substance alone vs either MB3648 or MB3649): 4 µg/mL

CC1(C)S[C@@H]2[C@H](NC(=O)Cc3ccccc3)C(=O)N2[C@H]1C(=O)O [Pen G]
zone of inhibition at 5 µg/mL (Vibrio percolans MB-1272; Comamonas terrigena, MB1272, Penase 10^4 units/ml, Pen G 5 μg/ml, no inhibitor, read-out: Zone of inhibition, Penase + Pen G Alone): 0 mm
